# Article PMC8222254, “Self-assembly of an anion receptor with metal-dependent kinase inhibition and potent in vitro anti-cancer properties” (Nature Communications, 2021)
# Several values for one entry are separate records, joined by “and”; a condition that tells them apart may be missing. Identical values can stand only once.
# How the values were obtained:
# Experiment in all cases: Kinase inhibition screen, cell-free 33P ATP assay at 10 μM
# Assay type in all cases: biochemical
# [1] = target: 140 purified human kinases (Homo sapiens, UniProt P27361)
# Chain of 140 purified human kinases (Homo sapiens, UniProt P27361) (P27361 whole entry): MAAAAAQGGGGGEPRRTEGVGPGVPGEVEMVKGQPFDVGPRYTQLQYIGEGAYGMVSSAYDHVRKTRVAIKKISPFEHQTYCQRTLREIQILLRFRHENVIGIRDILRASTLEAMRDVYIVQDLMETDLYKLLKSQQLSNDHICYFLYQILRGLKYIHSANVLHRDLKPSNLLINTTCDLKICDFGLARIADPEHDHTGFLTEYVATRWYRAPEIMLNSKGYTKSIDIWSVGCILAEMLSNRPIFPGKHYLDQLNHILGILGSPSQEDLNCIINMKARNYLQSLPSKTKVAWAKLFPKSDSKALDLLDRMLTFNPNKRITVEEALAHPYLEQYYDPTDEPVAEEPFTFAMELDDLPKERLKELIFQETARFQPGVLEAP
# Outline: (§1)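 Each complex tested in duplicate at 10 μM; cell-free radiometric assay using ^33P ATP on purified enzymes. Hits mapped by HGNC symbol onto the kinome tree.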
# [2] = target: 140 purified human kinases (Homo sapiens, UniProt P36507)
# Chain of 140 purified human kinases (Homo sapiens, UniProt P36507) (P36507 whole entry): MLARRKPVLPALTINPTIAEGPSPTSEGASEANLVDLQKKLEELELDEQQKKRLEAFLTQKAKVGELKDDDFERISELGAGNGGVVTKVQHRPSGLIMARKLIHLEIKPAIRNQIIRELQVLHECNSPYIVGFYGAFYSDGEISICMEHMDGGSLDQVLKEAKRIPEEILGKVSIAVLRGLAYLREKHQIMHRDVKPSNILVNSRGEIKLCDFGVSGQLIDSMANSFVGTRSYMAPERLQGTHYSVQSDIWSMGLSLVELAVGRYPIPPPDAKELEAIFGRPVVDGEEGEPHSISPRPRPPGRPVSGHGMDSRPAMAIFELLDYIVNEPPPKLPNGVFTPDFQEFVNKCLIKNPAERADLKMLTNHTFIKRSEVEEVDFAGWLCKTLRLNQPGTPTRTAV
# Outline: as §1
# [3] = target: 140 purified human kinases (Homo sapiens, UniProt Q13164)
# Chain of 140 purified human kinases (Homo sapiens, UniProt Q13164) (Q13164 whole entry): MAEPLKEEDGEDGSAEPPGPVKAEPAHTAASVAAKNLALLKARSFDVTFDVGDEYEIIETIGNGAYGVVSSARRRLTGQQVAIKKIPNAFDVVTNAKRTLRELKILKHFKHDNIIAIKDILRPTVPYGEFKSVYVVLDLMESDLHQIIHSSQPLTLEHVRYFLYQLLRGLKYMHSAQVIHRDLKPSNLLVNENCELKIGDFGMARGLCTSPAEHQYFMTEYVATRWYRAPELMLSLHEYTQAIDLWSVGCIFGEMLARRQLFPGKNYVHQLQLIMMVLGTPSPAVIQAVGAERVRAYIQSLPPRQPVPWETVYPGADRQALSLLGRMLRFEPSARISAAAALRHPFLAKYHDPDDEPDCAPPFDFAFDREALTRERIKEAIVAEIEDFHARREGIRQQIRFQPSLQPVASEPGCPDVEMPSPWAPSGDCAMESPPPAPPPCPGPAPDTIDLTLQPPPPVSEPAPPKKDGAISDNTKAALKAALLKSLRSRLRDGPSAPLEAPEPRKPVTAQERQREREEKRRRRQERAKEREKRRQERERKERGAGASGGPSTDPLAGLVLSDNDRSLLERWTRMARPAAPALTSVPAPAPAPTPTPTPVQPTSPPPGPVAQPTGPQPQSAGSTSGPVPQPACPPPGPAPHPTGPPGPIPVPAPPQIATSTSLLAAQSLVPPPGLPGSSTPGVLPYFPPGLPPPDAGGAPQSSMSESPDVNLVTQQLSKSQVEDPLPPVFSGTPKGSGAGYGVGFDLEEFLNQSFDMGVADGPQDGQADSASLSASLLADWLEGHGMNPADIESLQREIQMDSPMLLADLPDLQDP
# Outline: as §1
# [4] = target: T1, 140 purified human kinases (Homo sapiens, UniProt Q14164); settings: IKKe
# T1 sequence (Q14164 1-716): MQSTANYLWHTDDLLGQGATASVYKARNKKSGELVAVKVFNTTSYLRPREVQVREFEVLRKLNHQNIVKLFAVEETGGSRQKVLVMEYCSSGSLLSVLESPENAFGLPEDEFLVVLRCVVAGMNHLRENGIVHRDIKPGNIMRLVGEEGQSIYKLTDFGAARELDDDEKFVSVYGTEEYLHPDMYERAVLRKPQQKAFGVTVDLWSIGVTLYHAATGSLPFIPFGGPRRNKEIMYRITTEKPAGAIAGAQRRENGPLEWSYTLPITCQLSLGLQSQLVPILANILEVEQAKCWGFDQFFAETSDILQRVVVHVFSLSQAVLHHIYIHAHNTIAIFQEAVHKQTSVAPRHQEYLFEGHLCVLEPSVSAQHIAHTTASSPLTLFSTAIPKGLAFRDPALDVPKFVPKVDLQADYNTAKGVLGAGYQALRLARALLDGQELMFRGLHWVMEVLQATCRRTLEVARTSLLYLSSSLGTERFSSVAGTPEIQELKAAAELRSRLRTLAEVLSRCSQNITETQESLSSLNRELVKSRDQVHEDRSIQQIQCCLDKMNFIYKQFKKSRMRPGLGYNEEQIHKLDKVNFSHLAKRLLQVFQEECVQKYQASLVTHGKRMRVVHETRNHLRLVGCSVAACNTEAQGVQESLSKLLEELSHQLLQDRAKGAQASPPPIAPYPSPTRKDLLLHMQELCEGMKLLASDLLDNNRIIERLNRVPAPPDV
# Outline: as §1
# [5] = target: 140 purified human kinases (Homo sapiens, UniProt Q9H422)
# Chain of 140 purified human kinases (Homo sapiens, UniProt Q9H422) (Q9H422 whole entry): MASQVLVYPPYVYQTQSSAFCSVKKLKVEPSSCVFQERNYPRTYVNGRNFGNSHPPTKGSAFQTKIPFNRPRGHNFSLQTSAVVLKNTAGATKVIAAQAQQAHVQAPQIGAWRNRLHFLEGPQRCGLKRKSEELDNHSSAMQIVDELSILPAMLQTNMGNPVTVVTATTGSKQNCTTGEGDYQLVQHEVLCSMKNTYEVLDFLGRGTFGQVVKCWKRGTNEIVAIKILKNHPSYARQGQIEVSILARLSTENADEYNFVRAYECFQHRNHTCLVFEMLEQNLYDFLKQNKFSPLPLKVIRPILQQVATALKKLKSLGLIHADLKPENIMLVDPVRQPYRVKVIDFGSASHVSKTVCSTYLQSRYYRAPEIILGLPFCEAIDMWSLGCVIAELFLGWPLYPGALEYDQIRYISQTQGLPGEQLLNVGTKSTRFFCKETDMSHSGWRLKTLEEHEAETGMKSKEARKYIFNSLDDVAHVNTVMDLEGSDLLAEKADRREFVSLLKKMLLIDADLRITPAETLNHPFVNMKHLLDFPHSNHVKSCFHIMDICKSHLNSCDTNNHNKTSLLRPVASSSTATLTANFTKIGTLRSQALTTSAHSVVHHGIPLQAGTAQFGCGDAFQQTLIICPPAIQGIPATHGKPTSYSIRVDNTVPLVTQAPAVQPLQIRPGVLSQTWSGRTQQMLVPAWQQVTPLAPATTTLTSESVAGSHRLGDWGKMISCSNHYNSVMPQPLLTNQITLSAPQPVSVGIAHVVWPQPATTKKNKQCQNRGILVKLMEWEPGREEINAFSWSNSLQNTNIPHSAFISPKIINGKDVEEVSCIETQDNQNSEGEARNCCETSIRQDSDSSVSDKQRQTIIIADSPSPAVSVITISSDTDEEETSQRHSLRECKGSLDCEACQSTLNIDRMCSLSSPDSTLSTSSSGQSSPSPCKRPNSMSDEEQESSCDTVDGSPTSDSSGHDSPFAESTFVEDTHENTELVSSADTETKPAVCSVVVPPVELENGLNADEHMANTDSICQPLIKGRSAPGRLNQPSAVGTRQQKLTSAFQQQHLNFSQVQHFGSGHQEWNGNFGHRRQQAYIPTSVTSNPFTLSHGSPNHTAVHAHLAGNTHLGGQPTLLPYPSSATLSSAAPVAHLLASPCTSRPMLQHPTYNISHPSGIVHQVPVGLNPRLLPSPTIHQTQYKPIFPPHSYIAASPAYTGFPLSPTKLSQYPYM
# Outline: as §1
# [6] = target: T2, 140 purified human kinases (Homo sapiens, UniProt Q9NWZ3)
# T2 sequence (Q9NWZ3 1-460): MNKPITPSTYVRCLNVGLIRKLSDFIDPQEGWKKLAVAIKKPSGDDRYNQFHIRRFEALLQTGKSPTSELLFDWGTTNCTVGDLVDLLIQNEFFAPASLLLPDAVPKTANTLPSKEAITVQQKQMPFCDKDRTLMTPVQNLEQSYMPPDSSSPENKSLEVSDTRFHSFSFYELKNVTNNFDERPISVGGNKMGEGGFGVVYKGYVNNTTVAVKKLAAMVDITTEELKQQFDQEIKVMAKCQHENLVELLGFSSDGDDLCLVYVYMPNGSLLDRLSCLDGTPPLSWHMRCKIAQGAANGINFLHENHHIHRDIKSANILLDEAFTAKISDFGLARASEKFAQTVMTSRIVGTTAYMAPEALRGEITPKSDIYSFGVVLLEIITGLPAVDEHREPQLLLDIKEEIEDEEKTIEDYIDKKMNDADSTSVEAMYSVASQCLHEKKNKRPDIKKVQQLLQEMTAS
# Outline: as §1
smiles,measurement,setting,value
CC(=O)[O-].CC(=O)[O-].CC(=O)[O-].CC(=O)[O-].CC(=O)[O-].CC(=O)[O-].[Zn+2].[Zn+2].[Zn+2].c1ccc(-c2csc(NCCN(CCNc3nc(-c4ccccn4)cs3)CCNc3nc(-c4ccccn4)cs3)n2)nc1.c1ccc(-c2csc(NCCN(CCNc3nc(-c4ccccn4)cs3)CCNc3nc(-c4ccccn4)cs3)n2)nc1 [[L2Zn3]6+],"% Activation, Mean value",[1]; ERK1,5%
same,"% Inhibition, Mean",[1]; ERK1,-5%
same,mean % activity,[1]; ERK1,105%
same,% activity,"[1]; ERK1, duplicate runs",115% and 95%
same,"% Inhibition, Mean",[2]; MKK2,42%
same,"% Inhibition, Run 1 / Run 2",[2]; MKK2,40% and 45%
same,mean % activity,[2]; MKK2,58%
same,% activity,"[2]; MKK2, duplicate runs",60% and 55%
same,"% Inhibition, Mean",[3]; ERK5,16%
same,mean % activity,[3]; ERK5,84%
same,% activity,"[3]; ERK5, duplicate runs",65% and 104%
same,"% Inhibition, Mean",[4],21%
same,mean % activity,[4],79%
same,% activity,[4]; duplicate runs,69% and 89%
same,"% Inhibition, Mean",[5]; HIPK3,15%
same,mean % activity,[5]; HIPK3,85%
same,% activity,"[5]; HIPK3, duplicate runs",97% and 72%
same,"% Inhibition, Mean",[6]; IRAK4,10%
same,"% Inhibition, Run 1 / Run 2",[6]; IRAK4,13% and 7%
same,mean % activity,[6]; IRAK4,90%
same,% activity,"[6]; IRAK4, duplicate runs",87% and 93%
[Cu+2].[Cu+2].[Cu+2].c1ccc(-c2csc(NCCN(CCNc3nc(-c4ccccn4)cs3)CCNc3nc(-c4ccccn4)cs3)n2)nc1.c1ccc(-c2csc(NCCN(CCNc3nc(-c4ccccn4)cs3)CCNc3nc(-c4ccccn4)cs3)n2)nc1 [[L2Cu3]6+],"% Activation, Mean value",[1]; ERK1,1.15%
same,% Inhibition Run 1,[1]; ERK1,6.5%
same,% Inhibition Run 2,[1]; ERK1,-8.8%
same,"% Inhibition, Mean",[1]; ERK1,-1.15%
same,mean % activity,[1]; ERK1,101%
same,% activity,"[1]; ERK1, Run 1",93.5%
same,% activity,"[1]; ERK1, Run 2",108.8%
same,% Inhibition Run 1,[2]; MKK2,70.5%
same,% Inhibition Run 2,[2]; MKK2,79%
same,"% Inhibition, Mean",[2]; MKK2,75%
same,mean % activity,[2]; MKK2,25%
same,% activity,"[2]; MKK2, Run 1",29.5%
same,% activity,"[2]; MKK2, Run 2",21%
same,"% Activation, Mean value",[3]; ERK5,2%
same,% Inhibition Run 1,[3]; ERK5,3%
same,% Inhibition Run 2,[3]; ERK5,-7.2%
same,"% Inhibition, Mean",[3]; ERK5,-2%
same,mean % activity,[3]; ERK5,102%
same,% activity,"[3]; ERK5, Run 1",97%
same,% activity,"[3]; ERK5, Run 2",107.2%
same,% Inhibition Run 1,[4],69.9%
same,% Inhibition Run 2,[4],53.3%
same,"% Inhibition, Mean",[4],62%
same,mean % activity,[4],38%
same,% activity,[4]; Run 1,30.1%
same,% activity,[4]; Run 2,46.7%
same,% Inhibition Run 1,[5]; HIPK3,56.3%
same,% Inhibition Run 2,[5]; HIPK3,58.6%
same,"% Inhibition, Mean",[5]; HIPK3,57%
same,mean % activity,[5]; HIPK3,43%
same,% activity,"[5]; HIPK3, Run 1",43.7%
same,% activity,"[5]; HIPK3, Run 2",41.4%
same,% Inhibition Run 1,[6]; IRAK4,53.9%
same,% Inhibition Run 2,[6]; IRAK4,65.2%
same,"% Inhibition, Mean",[6]; IRAK4,60%
same,mean % activity,[6]; IRAK4,40%
same,% activity,"[6]; IRAK4, Run 1",46.1%
same,% activity,"[6]; IRAK4, Run 2",34.8%
